Reference: ChEMBL document CHEMBL4828773, “Novel HDAC1 and HDAC2 Inhibitors for Treating Diseases” (ACS Med Chem Lett, 2021)

Columns and labels:
Histone deacetylase 1 = Histone deacetylase 1 (Homo sapiens, UniProt Q13547); test: Inhibition of HDAC1 (unknown origin) preincubated for 10 mins followed by tripeptide substrate addition and measured after 60 mins by fluorescence microplate reader assay
Histone deacetylase 2 = Histone deacetylase 2 (Homo sapiens, UniProt Q92769); test: Inhibition of human HDAC2 preincubated for 10 mins followed by tripeptide substrate addition and measured after 60 mins by fluorescence microplate reader assay
Sequence of Histone deacetylase 2 (Q92769 whole entry): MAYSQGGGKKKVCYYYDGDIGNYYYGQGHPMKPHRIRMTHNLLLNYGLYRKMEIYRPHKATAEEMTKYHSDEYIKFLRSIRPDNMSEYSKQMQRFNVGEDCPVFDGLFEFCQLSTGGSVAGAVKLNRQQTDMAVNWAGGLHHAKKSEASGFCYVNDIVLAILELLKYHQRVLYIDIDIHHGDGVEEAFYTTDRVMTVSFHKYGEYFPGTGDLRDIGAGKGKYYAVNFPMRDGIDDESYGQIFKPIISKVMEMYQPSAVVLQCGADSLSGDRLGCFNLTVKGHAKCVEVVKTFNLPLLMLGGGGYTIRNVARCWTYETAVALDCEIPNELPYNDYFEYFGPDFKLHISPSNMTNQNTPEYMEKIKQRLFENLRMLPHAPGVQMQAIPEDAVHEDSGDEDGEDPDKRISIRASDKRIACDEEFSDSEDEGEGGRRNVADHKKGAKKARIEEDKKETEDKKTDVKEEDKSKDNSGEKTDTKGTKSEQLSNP

Sequence of Histone deacetylase 1 (Q13547 whole entry): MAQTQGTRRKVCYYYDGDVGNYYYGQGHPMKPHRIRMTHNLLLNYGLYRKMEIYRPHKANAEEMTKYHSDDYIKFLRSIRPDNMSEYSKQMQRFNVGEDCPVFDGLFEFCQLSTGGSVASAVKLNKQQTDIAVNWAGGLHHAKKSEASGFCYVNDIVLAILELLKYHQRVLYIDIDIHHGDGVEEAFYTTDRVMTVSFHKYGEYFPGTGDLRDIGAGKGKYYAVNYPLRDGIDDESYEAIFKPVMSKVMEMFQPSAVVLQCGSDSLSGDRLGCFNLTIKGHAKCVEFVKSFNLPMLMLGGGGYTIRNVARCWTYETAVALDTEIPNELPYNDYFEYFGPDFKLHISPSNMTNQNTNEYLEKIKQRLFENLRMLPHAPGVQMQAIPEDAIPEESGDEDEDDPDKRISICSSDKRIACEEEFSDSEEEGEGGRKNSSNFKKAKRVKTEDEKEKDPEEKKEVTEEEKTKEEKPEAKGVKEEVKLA

| SMILES | IC50 (Histone deacetylase 1) | IC50 (Histone deacetylase 2) |
| --- | --- | --- |
| Nc1ccc(-c2cccs2)cc1NC(=O)c1ccc2c(c1)CC(=O)N2CCN1CCOCC1 | 1 nM | 5 nM |
| CN(C)CCNc1ccc2cc(C(=O)Nc3cc(-c4cccs4)ccc3N)ncc2c1 | – | 5 nM |
| Nc1ccc(-c2ccccc2)cc1NC(=O)c1ccc2c(c1)ncn2CCN1CCOCC1 | 1 nM | 10 nM |
| Nc1ccc(-c2cccs2)cc1NC(=O)c1ccc2c(c1)CC(=O)N2CCCN1CCOCC1 | 1 nM | 5 nM |
| CN(C)CCN(C)c1ccc2cc(C(=O)Nc3cc(-c4cccs4)ccc3N)cnc2c1 | – | 15 nM |
| CN1C(=O)Cc2cc(C(=O)Nc3cc(-c4cccs4)ccc3N)ccc21 | 5 nM | 10 nM |
